# Active and inactive are the calls of the source. Unless noted, the calls are words filed in the database; no cut-off is given here.
# Columns and labels:
# Nonstructural protein 1 = Nonstructural protein 1 (Influenza A virus, UniProt Q194T2); assay type: functional, Influenza A virus (A/California/07/2009(H1N1))
# Hexokinase HKDC1 = target: T1, Hexokinase HKDC1 (Homo sapiens, UniProt Q2TB90); experiment: activation of HKDC1 glucose phosphorylation – biochemical, W721R variant, dose response (AID 504730); assay type: functional
# T1 sequence (Q2TB90 whole entry): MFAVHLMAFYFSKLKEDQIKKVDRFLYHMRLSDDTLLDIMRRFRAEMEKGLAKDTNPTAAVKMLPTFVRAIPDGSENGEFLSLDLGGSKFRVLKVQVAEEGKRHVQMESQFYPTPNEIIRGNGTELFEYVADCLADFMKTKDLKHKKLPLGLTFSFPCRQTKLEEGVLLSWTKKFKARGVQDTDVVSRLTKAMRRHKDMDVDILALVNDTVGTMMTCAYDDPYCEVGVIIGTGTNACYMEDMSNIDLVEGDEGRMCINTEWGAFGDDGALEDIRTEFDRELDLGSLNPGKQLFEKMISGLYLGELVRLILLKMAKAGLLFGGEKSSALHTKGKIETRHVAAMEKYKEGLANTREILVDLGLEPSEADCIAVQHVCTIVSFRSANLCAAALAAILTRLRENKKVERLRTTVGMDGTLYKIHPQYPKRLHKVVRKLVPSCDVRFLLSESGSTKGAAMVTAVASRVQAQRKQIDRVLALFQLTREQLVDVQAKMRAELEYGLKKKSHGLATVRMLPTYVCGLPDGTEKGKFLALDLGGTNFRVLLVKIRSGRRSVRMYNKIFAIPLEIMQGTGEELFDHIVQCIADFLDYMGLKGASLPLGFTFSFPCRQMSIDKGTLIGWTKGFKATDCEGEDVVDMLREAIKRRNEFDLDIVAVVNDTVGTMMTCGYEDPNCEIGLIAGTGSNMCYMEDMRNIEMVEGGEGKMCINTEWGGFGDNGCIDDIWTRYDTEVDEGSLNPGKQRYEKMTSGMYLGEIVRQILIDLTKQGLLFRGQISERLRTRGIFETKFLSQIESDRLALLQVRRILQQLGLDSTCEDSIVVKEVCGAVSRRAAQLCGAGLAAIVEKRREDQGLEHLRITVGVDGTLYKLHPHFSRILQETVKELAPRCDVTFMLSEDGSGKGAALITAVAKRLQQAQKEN
# HEK293 = experiment: EBV LMP1 TES2 canonical NF-kB signalling blockers – cell-based, HEK293, luciferase, cherry-pick, dose response (AID 588343); assay type: functional; settings: Homo sapiens
# Hexokinase-1 = Hexokinase-1 (Homo sapiens, UniProt P19367); experiment: HK1 enzyme activation by HKDC1 hits – biochemical, selectivity assay for HKDC1 activator project, dose response (AID 504762); assay type: functional
# [1] = target: T2, Peroxisome proliferator-activated receptor gamma (Homo sapiens, UniProt P37231); experiment: PPARg transcriptional activation, reporter cells – cell-based, luminescence, assay provider, dose response (AID 504447); assay type: functional
# [2] = target: T2, Peroxisome proliferator-activated receptor gamma; experiment: competitive ligand displacement at PPARg – biochemical, TR-FRET, LanthaScreen, PPARg partial agonist project, dose response (AID 504446)
# [3] = target: Peroxisome proliferator-activated receptor alpha (Homo sapiens, UniProt Q07869); experiment: Late stage assay provider counterscreen for partial agonists of the peroxisome proliferator-activated receptor gamma (PPARg): Luminescence-based cell-based dose response assay for partial agonists of the peroxisome proliferator-activated receptor alpha (PPARA). [Related pubchem assays (depositor defined):AID1051, AID1300, AID1319, AID1679, AID1808, AID504446, AID504447, AID504452, AID504453, AID631]; assay type: functional
# Sequence of Peroxisome proliferator-activated receptor alpha (Q07869 whole entry): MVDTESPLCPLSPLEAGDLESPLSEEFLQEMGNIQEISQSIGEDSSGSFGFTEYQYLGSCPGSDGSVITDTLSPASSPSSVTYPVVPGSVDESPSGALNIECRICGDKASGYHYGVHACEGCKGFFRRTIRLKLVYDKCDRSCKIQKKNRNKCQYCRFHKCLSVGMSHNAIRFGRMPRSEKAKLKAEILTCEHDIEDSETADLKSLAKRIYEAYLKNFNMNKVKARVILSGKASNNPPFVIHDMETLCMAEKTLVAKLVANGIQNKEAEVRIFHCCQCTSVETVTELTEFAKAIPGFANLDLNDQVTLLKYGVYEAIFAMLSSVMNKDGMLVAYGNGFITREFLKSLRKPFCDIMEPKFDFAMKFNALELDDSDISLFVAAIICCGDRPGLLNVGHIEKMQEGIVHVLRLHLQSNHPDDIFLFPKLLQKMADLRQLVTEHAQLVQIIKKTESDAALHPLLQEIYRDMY
# T2 sequence (P37231 whole entry): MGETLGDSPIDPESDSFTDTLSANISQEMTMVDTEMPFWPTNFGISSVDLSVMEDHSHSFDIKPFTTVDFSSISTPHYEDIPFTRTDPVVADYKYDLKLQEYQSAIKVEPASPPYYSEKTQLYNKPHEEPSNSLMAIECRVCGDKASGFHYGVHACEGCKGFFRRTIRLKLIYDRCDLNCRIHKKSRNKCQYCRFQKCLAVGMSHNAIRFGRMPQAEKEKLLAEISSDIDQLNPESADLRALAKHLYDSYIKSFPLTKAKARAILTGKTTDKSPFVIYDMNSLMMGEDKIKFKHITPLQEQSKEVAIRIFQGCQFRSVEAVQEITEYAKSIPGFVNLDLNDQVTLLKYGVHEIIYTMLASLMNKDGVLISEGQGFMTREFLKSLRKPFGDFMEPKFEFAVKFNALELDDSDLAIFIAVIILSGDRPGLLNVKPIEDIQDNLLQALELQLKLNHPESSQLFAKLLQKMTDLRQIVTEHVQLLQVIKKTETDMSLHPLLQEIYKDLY
# Sequence of Hexokinase-1 (P19367 whole entry): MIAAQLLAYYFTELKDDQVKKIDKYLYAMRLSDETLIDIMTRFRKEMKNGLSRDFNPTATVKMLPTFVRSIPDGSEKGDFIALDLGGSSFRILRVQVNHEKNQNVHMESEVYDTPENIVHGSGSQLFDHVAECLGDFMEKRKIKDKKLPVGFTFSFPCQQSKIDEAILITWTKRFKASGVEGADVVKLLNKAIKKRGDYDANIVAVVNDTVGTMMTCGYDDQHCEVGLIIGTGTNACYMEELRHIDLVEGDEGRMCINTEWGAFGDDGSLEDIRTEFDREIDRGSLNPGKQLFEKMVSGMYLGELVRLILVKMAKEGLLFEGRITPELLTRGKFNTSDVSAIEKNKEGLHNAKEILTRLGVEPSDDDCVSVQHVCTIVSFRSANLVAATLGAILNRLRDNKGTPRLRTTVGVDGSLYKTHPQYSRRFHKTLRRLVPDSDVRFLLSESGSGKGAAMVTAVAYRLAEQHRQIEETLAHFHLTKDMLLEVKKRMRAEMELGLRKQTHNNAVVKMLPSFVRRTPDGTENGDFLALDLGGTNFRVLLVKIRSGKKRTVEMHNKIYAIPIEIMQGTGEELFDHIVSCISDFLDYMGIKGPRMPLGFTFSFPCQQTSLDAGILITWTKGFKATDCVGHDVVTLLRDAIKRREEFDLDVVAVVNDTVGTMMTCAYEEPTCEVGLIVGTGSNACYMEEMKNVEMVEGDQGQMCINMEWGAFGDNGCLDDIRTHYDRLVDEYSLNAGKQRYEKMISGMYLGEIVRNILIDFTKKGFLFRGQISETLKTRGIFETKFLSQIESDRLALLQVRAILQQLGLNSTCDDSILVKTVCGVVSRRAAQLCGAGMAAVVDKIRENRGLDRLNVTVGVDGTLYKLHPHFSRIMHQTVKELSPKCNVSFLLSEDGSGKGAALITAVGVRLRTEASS
# Sequence of Nonstructural protein 1 (Q194T2 whole entry): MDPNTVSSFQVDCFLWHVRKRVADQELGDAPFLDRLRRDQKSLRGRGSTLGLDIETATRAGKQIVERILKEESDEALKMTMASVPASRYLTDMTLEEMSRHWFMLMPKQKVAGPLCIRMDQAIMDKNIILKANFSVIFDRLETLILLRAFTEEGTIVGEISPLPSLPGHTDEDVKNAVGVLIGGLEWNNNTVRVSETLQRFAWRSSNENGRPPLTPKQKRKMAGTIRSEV
SMILES,IC50 (Nonstructural protein 1),EC50 (Hexokinase HKDC1),AC50 (HEK293),EC50 (Hexokinase-1),EC50 [1],IC50 [2],EC50 [3]
CC(=NNC(=S)N1CC2CCC(CC2)C1)c1nccs1,13 µM (active),1.83 µM (active),0.539 µM (active),> 80 µM (inactive),–,–,–
O=C(O)CCN1C(=O)/C(=C/c2ccc(F)cc2F)SC1=S,–,–,–,–,1.5 µM (active),2.5 µM (active),0.057 µM (active)

# — ChEMBL document CHEMBL1201862, “PubChem BioAssay data set” (2004)
